Measured values published in US6441195B1, “Substituted sulphonylamino(thio) carbonyl compounds” (Bayer Aktiengesellschaft, priority 1995, dated 2002).

Legend:
Assay type in all cases: in vivo
weeds = experiment: Pre-emergence test (greenhouse), activity against weeds; details: in words
Experimental: Solvent: 5 parts by weight of acetone
Emulsifier: 1 part by weight of alkylaryl polyglycol ether
(§1) To produce a suitable preparation of the active compound, 1 part by weight of active compound is mixed with the stated amount of solvent, the stated amount of emulsifier is added and the concentrate is diluted with water to the desired concentration.
(§2) Seeds of the test plants are sown in normal soil. After about 24 hours, the soil is watered with the preparation of active compound. Advantageously, the amount of water per unit area is kept constant. The active compound concentration in the preparation is not important, only the active compound appliation rate per unit area matters.
(§3) After three weeks, the degree of damage to the plants is rated in % damage in comparison to the development of the untreated control.
(§4) 0%=no action (like untreated control)

Maize = experiment: Pre-emergence test/Greenhouse, Maize; details: in vivo
Experimental: as §1, §2, §3, §4

Lolium = experiment: Pre-emergence test/Greenhouse, Lolium; details: after three weeks
Experimental: as §1, §2, §3, §4

Poa = experiment: Pre-emergence test/Greenhouse, Poa; details: 125 g of ai./ha, after three weeks
Experimental: as §1, §2, §3, §4

Ambrosia = experiment: Pre-emergence test/Greenhouse, Ambrosia; details: 125 g of ai./ha, after three weeks
Experimental: as §1, §2, §3, §4

Matricaria = experiment: Pre-emergence test/Greenhouse, Matricaria; details: after three weeks
Experimental: as §1, §2, §3, §4

Solanum = experiment: Pre-emergence test/Greenhouse, Solanum; details: after three weeks
Experimental: as §1, §2, §3, §4

Sorghum = experiment: Pre-emergence test/Greenhouse, Sorghum; details: after three weeks
Experimental: as §1, §2, §3, §4

CCOC(=O)c1scc(C)c1S(=O)(=O)NC(=O)c1noc(C)n1 [Example 72]
activity against weeds (weeds): very strong activity against weeds
degree of damage to the plants (% damage vs untreated control), Maize (Maize): 10%
degree of damage to the plants (% damage vs untreated control), Lolium (Lolium; 125 g of ai./ha): 90%
degree of damage to the plants (% damage vs untreated control), Poa (Poa): 70%
degree of damage to the plants (% damage vs untreated control), Ambrosia (Ambrosia): 95%
degree of damage to the plants (% damage vs untreated control), Matricaria (Matricaria; 125 g of ai./ha): 100%
degree of damage to the plants (% damage vs untreated control), Solanum (Solanum; 125 g of ai./ha): 100%

CCc1nn(C(=O)NS(=O)(=O)c2c(C)csc2C(=O)OC(C)C)c(=O)n1C [Example 77]
activity against weeds (weeds): very strong activity against weeds
degree of damage to the plants (% damage vs untreated control), Maize (Maize): 0%
degree of damage to the plants (% damage vs untreated control), Lolium (Lolium; 60 g of ai./ha): 95%
degree of damage to the plants (% damage vs untreated control), Sorghum (Sorghum; 60 g of ai./ha): 90%
degree of damage to the plants (% damage vs untreated control), Matricaria (Matricaria; 60 g of ai./ha): 100%
degree of damage to the plants (% damage vs untreated control), Solanum (Solanum; 60 g of ai./ha): 90%

CCCOC(=O)c1scc(C)c1S(=O)(=O)NC(=O)n1nc(OCC)n(C)c1=O [Example 80]
activity against weeds (weeds): very strong activity against weeds
degree of damage to the plants (% damage vs untreated control), Maize (Maize): 0%
degree of damage to the plants (% damage vs untreated control), Lolium (Lolium; 125 g of ai./ha): 95%
degree of damage to the plants (% damage vs untreated control), Sorghum (Sorghum; 125 g of ai./ha): 90%
degree of damage to the plants (% damage vs untreated control), Matricaria (Matricaria; 125 g of ai./ha): 100%
degree of damage to the plants (% damage vs untreated control), Solanum (Solanum; 125 g of ai./ha): 95%

CCSc1nn(C(=O)NS(=O)(=O)c2c(C)csc2C(=O)OC(C)C)c(=O)n1C [Example 81]
activity against weeds (weeds): very strong activity against weeds
degree of damage to the plants (% damage vs untreated control), Lolium (Lolium; 60 g of ai./ha): 100%
degree of damage to the plants (% damage vs untreated control), Sorghum (Sorghum; 60 g of ai./ha): 95%
degree of damage to the plants (% damage vs untreated control), Matricaria (Matricaria; 60 g of ai./ha): 100%
degree of damage to the plants (% damage vs untreated control), Solanum (Solanum; 60 g of ai./ha): 100%

COc1nn(C(=O)NS(=O)(=O)c2c(C)csc2C(=O)OC(C)C)c(=O)n1C [Example 82]
activity against weeds (weeds): very strong activity against weeds
degree of damage to the plants (% damage vs untreated control), Maize (Maize): 0%
degree of damage to the plants (% damage vs untreated control), Lolium (Lolium; 60 g of ai./ha): 60%
degree of damage to the plants (% damage vs untreated control), Sorghum (Sorghum; 60 g of ai./ha): 90%
degree of damage to the plants (% damage vs untreated control), Matricaria (Matricaria; 60 g of ai./ha): 100%
degree of damage to the plants (% damage vs untreated control), Solanum (Solanum; 60 g of ai./ha): 100%

CCOc1nn(C(=O)NS(=O)(=O)c2c(C)csc2C(=O)OC(C)C)c(=O)n1C1CC1 [Example 85]
activity against weeds (weeds): very strong activity against weeds
degree of damage to the plants (% damage vs untreated control), Maize (Maize): 60%
degree of damage to the plants (% damage vs untreated control), Lolium (Lolium; 125 g of ai./ha): 95%
degree of damage to the plants (% damage vs untreated control), Sorghum (Sorghum; 125 g of ai./ha): 95%
degree of damage to the plants (% damage vs untreated control), Matricaria (Matricaria; 125 g of ai./ha): 100%
degree of damage to the plants (% damage vs untreated control), Solanum (Solanum; 125 g of ai./ha): 100%

CCCOC(=O)c1scc(C)c1S(=O)(=O)NC(=O)n1nc(OC)n(C)c1=O [Example 89]
activity against weeds (weeds): very strong activity against weeds
degree of damage to the plants (% damage vs untreated control), Maize (Maize): 0%
degree of damage to the plants (% damage vs untreated control), Lolium (Lolium; 125 g of ai./ha): 100%
degree of damage to the plants (% damage vs untreated control), Sorghum (Sorghum; 125 g of ai./ha): 90%
degree of damage to the plants (% damage vs untreated control), Matricaria (Matricaria; 125 g of ai./ha): 100%
degree of damage to the plants (% damage vs untreated control), Solanum (Solanum; 125 g of ai./ha): 100%

CCCOC(=O)c1scc(C)c1S(=O)(=O)NC(=O)n1nc(OCC)n(C2CC2)c1=O [Example 93]
activity against weeds (weeds): very strong activity against weeds
degree of damage to the plants (% damage vs untreated control), Maize (Maize): 0%
degree of damage to the plants (% damage vs untreated control), Lolium (Lolium; 60 g of ai./ha): 90%
degree of damage to the plants (% damage vs untreated control), Sorghum (Sorghum; 60 g of ai./ha): 80%
degree of damage to the plants (% damage vs untreated control), Matricaria (Matricaria; 60 g of ai./ha): 95%
degree of damage to the plants (% damage vs untreated control), Solanum (Solanum; 60 g of ai./ha): 90%

CCCc1nn(C(=O)NS(=O)(=O)c2c(C)csc2C(=O)OC(C)C)c(=O)n1C [Example 108]
activity against weeds (weeds): very strong activity against weeds
degree of damage to the plants (% damage vs untreated control), Maize (Maize): 5%
degree of damage to the plants (% damage vs untreated control), Lolium (Lolium; 125 g of ai./ha): 90%
degree of damage to the plants (% damage vs untreated control), Sorghum (Sorghum; 125 g of ai./ha): 95%
degree of damage to the plants (% damage vs untreated control), Matricaria (Matricaria; 125 g of ai./ha): 95%
degree of damage to the plants (% damage vs untreated control), Solanum (Solanum; 125 g of ai./ha): 90%

COC(=O)c1cccc(C)c1S(=O)(=O)NC(=O)c1ncc(C)o1 [Example 121]
activity against weeds (weeds): very strong activity against weeds
degree of damage to the plants (% damage vs untreated control), Maize (Maize): 10%
degree of damage to the plants (% damage vs untreated control), Lolium (Lolium; 500 g of ai./ha): 70%
degree of damage to the plants (% damage vs untreated control), Sorghum (Sorghum; 500 g of ai./ha): 80%
degree of damage to the plants (% damage vs untreated control), Matricaria (Matricaria; 500 g of ai./ha): 90%
degree of damage to the plants (% damage vs untreated control), Solanum (Solanum; 500 g of ai./ha): 95%

COC(=O)c1cccc(C)c1S(=O)(=O)NC(=O)n1nc(SC)n(C2CC2)c1=O [Example 158]
activity against weeds (weeds): very strong activity against weeds
